Each structure is given as a SMILES string. Read-outs that look alike come from different tables or passages of the source.

Assay [1] deals with T1, ALCAT1 (Homo sapiens (Human), UniProt Q6UWP7). Kind of assay: In vitro acyltransferase assay for ALCAT1 inhibitors. Format: biochemical. The following applies: for % inh @ 1 μM / inhibition at 1 µM: 1 μM compound; for % inh @ 1 μM / inhibition at 1 µM / inhibition at 10 µM: in vitro enzymatic assay; for IC50: ALCAT1 enzyme activity; for inhibition at 10 µM: 10 μM compound. Summed up: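 Membrane fractions from Sf9 cells expressing human ALCAT1 incubated 30 min at room temperature with 100 µM MLCL or LPG and 25 µM [14C]acyl-CoA (or 100 µM NBD-CoA) in 50 mM Tris/HCl pH 7.0.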
Target sequence in this assay (Q6UWP7 whole entry): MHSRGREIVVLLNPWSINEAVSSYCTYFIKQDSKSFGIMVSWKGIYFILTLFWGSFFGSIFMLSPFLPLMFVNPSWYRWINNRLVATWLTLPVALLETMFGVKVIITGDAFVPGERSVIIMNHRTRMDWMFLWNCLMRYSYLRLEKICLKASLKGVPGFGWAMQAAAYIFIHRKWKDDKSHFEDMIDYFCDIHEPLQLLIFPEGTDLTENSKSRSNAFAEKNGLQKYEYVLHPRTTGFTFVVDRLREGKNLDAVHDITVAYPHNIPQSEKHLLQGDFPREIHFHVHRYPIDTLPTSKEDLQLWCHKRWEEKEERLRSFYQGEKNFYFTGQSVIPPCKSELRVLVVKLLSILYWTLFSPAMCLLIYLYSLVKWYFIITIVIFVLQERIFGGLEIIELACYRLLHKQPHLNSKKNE

For assay [2], the target named is T1, ALCAT1. Kind of assay: Cell-based assay for ALCAT inhibitor compounds (H9C2 cells). Conditions: H9c2, 3 μM compound; H9C2 vector cell line and H9C2 with stable overexpression of ALCAT1. As for the experimental part: The assay was performed on the H9C2 vector cell line and H9C2 with stable overexpression of ALCAT1. Materials used in the protocol were CoA, LPG, compounds, chloroform, methanol, 0.9% KCl, 6-well-plates, 1.5 mL tubes, DMEM, FBS, P/S and PBS.
Cells were seeded in 6-well-plates, 8×10^5 cells/well, and cultured at 37° C. in 5% CO2 overnight.
Cells were washed once with ice-cold PBS, collected in ice-cold PBS and centrifuged at 5000 rpm for 5 min at 4° C. 200 μL of chloroform: methanol (2:1) was added to the cell pellet, which was vortexed to suspend the cells and incubated at RT for 1 hr.
40 μL of 0.9% KCl was added and the sample was vortexed before centrifugation at 10000 rpm for 5 min at RT. The aqueous phase (upper layer) was discarded and the organic phase (lower layer) was loaded to a TLC plate (10 cm×20 cm), 40 μL/sample.
The plates were developed in chloroform: methanol: water (65:25:4) for about 30 min and scanned using a Typhoon Scanner. The bands intensity was analysed using ImageJ and the inhibition activity of the tested compounds was calculated.
Compound inhibitors for ALCAT1 enzyme were analyzed by an in vitro cell-based assay as detailed above.
Target sequence in this assay (Q6UWP7 whole entry, species assumed): as the sequence (Q6UWP7 whole entry) above

Where [3] appears, read: triplicates, GraphPad, read-out: IC50.
Setting [4] is: read-out: IC50 values (upper bounds).

On to `Cc1ccc(OCCF)c(C(=O)Nc2cc(-c3nnc(-c4ccco4)o3)ccc2F)c1` [Compound 321, N-(2-Fluoro-5-(5-(furan-2-yl)-1,3,4-oxadiazol-2-yl)phenyl)-2-(2-fluoroethoxy)-5-methylbenzamide], for which, in assay [1], the “% inh @ 1 μM” value was found to be 92% and testing at 1 µM gave an inhibition of 94%. The IC50 in assay [1] (setting [3]) is 38 nM. This compound also displayed an inhibition at 3 µM in assay [2] of 75%.
Turning to `COc1ccc(OC(F)(F)F)cc1C(=O)Nc1cc(-c2nnc(-c3ccco3)o2)ccc1F` [Compound 405, N-(2-Fluoro-5-(5-(furan-2-yl)-1,3,4-oxadiazol-2-yl)phenyl)-2-methoxy-5-(trifluoromethoxy)benzamide], in assay [1], at 1 µM the inhibition was 98%. The IC50 in assay [1] (setting [4]) is less than 100 nM; in assay [1] (setting [3]) it was 19 nM. Also, the inhibition at 3 µM in assay [2] worked out at 52%.
Consider `O=C(Nc1cc(-c2nnc(-c3ccco3)o2)ccc1F)c1cc(Cl)ccc1OC(F)(F)F` [Compound 304, 5-Chloro-N-(2-fluoro-5-(5-(furan-2-yl)-1,3,4-oxadiazol-2-yl)phenyl)-2-(trifluoromethoxy)benzamide], for which, in assay [1], the “% inh @ 1 μM” value was 96% and the inhibition at 1 µM turned out to be 98%. Besides, the IC50 in assay [1] (setting [4]) was less than 100 nM. The IC50 in assay [1] (setting [3]) stood at 20 nM. Further, testing at 3 µM in assay [2] gave an inhibition of 31%.
The compound `O=C(Nc1cc(-c2nnc(-c3ccco3)o2)ccc1F)c1cc(Cl)ccc1OCF` [Compound 306, 5-Chloro-N-(2-fluoro-5-(5-(furan-2-yl)-1,3,4-oxadiazol-2-yl)phenyl)-2-(fluoromethoxy)benzamide] showed an inhibition at 1 µM in assay [1] of 100%. In addition, the IC50 in assay [1] (setting [4]) was less than 100 nM; in assay [1] (setting [3]) it was 19 nM. The compound also displayed an inhibition at 3 µM in assay [2] of 30%.
For `COc1ccc(Cl)cc1C(=O)Nc1cc(-c2nnc(-c3ccco3)o2)ccc1F` [Compound 184, 5-Chloro-N-(2-fluoro-5-(5-(furan-2-yl)-1,3,4-oxadiazol-2-yl)phenyl)-2-methoxybenzamide], in assay [1], the “% inh @ 1 μM” value is given as 100/100% and the inhibition at 1 µM was 100%. The IC50 in assay [1] (setting [4]) is less than 100 nM. Besides, the IC50 in assay [1] (setting [3]) came out at 18 nM. In assay [2], this compound returned an inhibition at 3 µM of 57%.
As for `CCCc1ccc(OC)c(C(=O)Nc2cc(-c3nnc(-c4ccco4)o3)ccc2F)c1` [Compound 281, N-(2-Fluoro-5-(5-(furan-2-yl)-1,3,4-oxadiazol-2-yl)phenyl)-2-methoxy-5-propylbenzamide], in assay [1], the “% inh @ 1 μM” value worked out at 97% and the inhibition at 1 µM worked out at 100%. For the same compound, the IC50 in assay [1] (setting [4]) is less than 100 nM. In addition, in assay [1] (setting [3]), the IC50 was 24 nM. The compound also yielded an inhibition at 3 µM in assay [2] of 65%.
In the case of `CCCOc1ccc(F)cc1C(=O)Nc1cc(-c2nnc(-c3ccco3)o2)ccc1F` [Compound 210, 5-Fluoro-N-(2-fluoro-5-(5-(furan-2-yl)-1,3,4-oxadiazol-2-yl)phenyl)-2-propoxybenzamide], in assay [1], the inhibition at 1 µM worked out at 97% and the inhibition at 10 µM stood at 97%. The IC50 in assay [1] (setting [3]) is 66 nM. Further, 3 µM produced 24% inhibition in assay [2].
In turn, `O=C(Nc1cc(-c2nnc(-c3ccco3)o2)ccc1F)c1ccccc1OC(F)F` [Compound 302, 2-(Difluoromethoxy)-N-(2-fluoro-5-(5-(furan-2-yl)-1,3,4-oxadiazol-2-yl)phenyl)benzamide] returned an inhibition at 1 µM in assay [1] of 97%. In addition, the IC50 in assay [1] (setting [3]) is 36 nM. The same compound showed an inhibition at 3 µM in assay [2] of 20%.
In assay [1], `CCOc1ccc(Br)cc1C(=O)Nc1cccc(-c2nnc(-c3ccco3)o2)c1` [Compound 118, 5-Bromo-2-ethoxy-N-(3-(5-(furan-2-yl)-1,3,4-oxadiazol-2-yl)phenyl)benzamide] showed an inhibition at 1 µM of 95% and an inhibition at 10 µM of 100%. Moreover, the concentration for half-maximal inhibition (IC50) in assay [1] (setting [4]) was less than 100 nM. In addition, the IC50 in assay [1] (setting [3]) was determined as 31 nM. In assay [2], this compound gave an inhibition at 3 µM of 9%.
Consider `CCOc1ccc(C)cc1C(=O)Nc1cc(-c2nnc(-c3ccco3)o2)ccc1F` [Compound 221, 2-Ethoxy-N-(2-fluoro-5-(5-(furan-2-yl)-1,3,4-oxadiazol-2-yl)phenyl)-5-methylbenzamide], for which, in assay [1], the “% inh @ 1 μM” value is reported as 100/100% and the inhibition at 1 µM was 100%. Besides, in assay [1] (setting [4]), the IC50 is less than 100 nM. For the same compound, in assay [1] (setting [3]), the IC50 was 31 nM. In assay [2], this compound returned an inhibition at 3 µM of 38%.
In the case of `O=C(Nc1cc(-c2nnc(-c3ccco3)o2)ccc1F)c1ccccc1OCC(F)F` [Compound 314, 2-(2,2-Difluoroethoxy)-N-(2-fluoro-5-(5-(furan-2-yl)-1,3,4-oxadiazol-2-yl)phenyl)benzamide], the inhibition at 1 µM in assay [1] came out at 95%. Further, the IC50 in assay [1] (setting [4]) is less than 100 nM; in assay [1] (setting [3]), 29 nM. For the same compound, at 3 µM the inhibition in assay [2] was 36%.
Take `O=C(Nc1cc(-c2nnc(-c3ccco3)o2)ccc1F)c1cc(F)ccc1OCC(F)(F)F` [Compound 319, 5-Fluoro-N-(2-fluoro-5-(5-(furan-2-yl)-1,3,4-oxadiazol-2-yl)phenyl)-2-(2,2,2-trifluoroethoxy)benzamide]: the inhibition at 1 µM in assay [1] turned out to be 96%. Besides, the half-inhibitory concentration (IC50) in assay [1] (setting [3]) was 46 nM. The same compound had an inhibition at 3 µM in assay [2] of 12%.
Consider `CCCOc1ccc(C)cc1C(=O)Nc1cc(-c2nnc(-c3ccco3)o2)ccc1F` [Compound 208, N-(2-Fluoro-5-(5-(furan-2-yl)-1,3,4-oxadiazol-2-yl)phenyl)-5-methyl-2-propoxybenzamide], for which, in assay [1], the “% inh @ 1 μM” value amounted to 98% and the inhibition at 1 µM was determined as 97%. The IC50 in assay [1] (setting [3]) stood at 76 nM. The compound further registered an inhibition at 3 µM in assay [2] of 36%.

Values taken from US11208404B2 (PERENNA PHARMACEUTICALS, INC., priority 2017, dated 2021).
